ChEMBL document CHEMBL4177610, “Discovery of a novel 2,4-dimethylquinoline-6-carboxamide M4 positive allosteric modulator (PAM) chemotype via scaffold hopping” (Bioorg Med Chem Lett, 2017)
The source made the active and inactive calls. The calls are words filed in the database; no cut-off is given here.

What was measured:
[1] = Intrinsic clearance in human liver microsomes; format: ADME, microsome; conditions: read-out: CLH
[2] = Brain to plasma partition coefficient, Kp of the compound in Sprague-Dawley rat at 0.2 mg/kg, iv measured after 0.25 hrs; format: ADME, organism-based; conditions: brain and plasma
[3] = Fraction unbound in human plasma; format: ADME, cell-free
[4] = Intrinsic clearance in rat liver microsomes; format: ADME, microsome; conditions: read-out: CLH
[5] = Ratio of unbound brain to plasma concentration in Sprague-Dawley rat at 0.2 mg/kg, iv measured after 0.25 hrs; format: ADME, organism-based; conditions: brain and plasma, read-out: K(p,uu,brain)
[6] = Fraction unbound in rat brain; format: ADME, tissue-based
[7] = Fraction unbound in rat plasma; format: ADME, cell-free
[8] = biological target: T1, Muscarinic acetylcholine receptor M4 (Rattus norvegicus, UniProt P08485); experiment: (§1) Positive allosteric modulation of rat M4 receptor expressed in CHO cells co-expressing Gqi5 assessed as increase in acetylcholine-induced calcium mobilization; format: functional, cell-based
T1 sequence (P08485 whole entry): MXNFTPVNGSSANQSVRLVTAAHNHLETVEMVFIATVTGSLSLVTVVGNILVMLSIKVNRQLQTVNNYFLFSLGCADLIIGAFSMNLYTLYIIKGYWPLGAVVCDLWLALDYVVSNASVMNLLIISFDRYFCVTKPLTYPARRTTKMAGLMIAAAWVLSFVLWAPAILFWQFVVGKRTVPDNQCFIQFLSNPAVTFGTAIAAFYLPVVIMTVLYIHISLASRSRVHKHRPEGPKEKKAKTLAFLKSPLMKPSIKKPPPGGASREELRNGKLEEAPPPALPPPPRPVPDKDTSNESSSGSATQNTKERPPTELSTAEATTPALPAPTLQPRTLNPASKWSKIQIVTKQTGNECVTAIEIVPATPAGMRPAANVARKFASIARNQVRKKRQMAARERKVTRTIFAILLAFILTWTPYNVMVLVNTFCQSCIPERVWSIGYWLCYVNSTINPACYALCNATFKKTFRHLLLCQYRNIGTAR

[9] = biological target: T2, Muscarinic acetylcholine receptor M4 (Rattus norvegicus) (UniProt P08485); experiment: Positive allosteric modulation of rat M4 receptor expressed in CHO cells co-expressing Gqi5 assessed as increase in acetylcholine-induced calcium mobilization relative to acetylcholine; format: functional, cell-based
T2 sequence (whole entry): T1 sequence (P08485 whole entry)

[10] = biological target: T2, Muscarinic acetylcholine receptor M4 (Rattus norvegicus); experiment: as §1; format: functional, cell-based

| SMILES | EC50 ([8]; read-out: EC50) [µM] | %max [9] [%] | further results |
| --- | --- | --- | --- |
| Cc1cc(C)c2cc(C(=O)NC3CN(c4ccc(C(F)(F)F)nc4)C3)ccc2n1 | 0.449 | 85 | CLint scaled [1]: 36 mL/min/kg; Kp at 0.25 h [2]: 0.05; fraction unbound [3]: 0.005; CLint scaled [4]: 94 mL/min/kg; Kp uu at 0.25 h [5]: 0.2; fraction unbound [6]: 0.016; fraction unbound [7]: 0.004 |
| Cc1cc(C)c2cc(C(=O)NC3CN(c4ccnc(F)c4F)C3)ccc2n1 | 0.332 | 82 | CLint scaled [1]: 129 mL/min/kg; Kp at 0.25 h [2]: 0.17; fraction unbound [3]: 0.009; CLint scaled [4]: 232 mL/min/kg; Kp uu at 0.25 h [5]: 0.3; fraction unbound [6]: 0.023; fraction unbound [7]: 0.013 |
| COc1ccc(C)c2sc(NC(=O)c3ccncc3)nc12 | 0.225 | – | – |
| Cc1ccc(OC2CCN(c3ncnc4ccc(F)cc34)CC2)cn1 | 0.225 | – | – |
| Cc1cc(C)c2cc(C(=O)NC3CN(c4ccc(OC(F)F)nc4)C3)ccc2n1 | – | 43 | pEC50 [10]: inactive; EC50 ([8]; cho): Not Active |
| Cc1cc(C)c2cc(C(=O)NC3CN(c4ncc(Cl)cc4Cl)C3)ccc2n1 | 0.587 | 70 | – |
| Cc1cc(C)c2cc(C(=O)NC3CN(c4ncc(F)cc4Cl)C3)ccc2n1 | 0.401 | 72 | – |
| Cc1cc(C)c2cc(C(=O)NC3CN(c4ccc(C(F)(F)F)cn4)C3)ccc2n1 | 1.08 | 77 | – |
| COc1ccc(CNC(=O)c2sc3nnc(C)c(C)c3c2N)cc1F | 0.225 | – | – |
| COc1nc2sc(C(=O)NC3CC3)c(N)c2c(C)c1Cl | 0.225 | – | – |
| Cc1cc(N2CC(NC(=O)c3ccc4nc(C)cc(C)c4c3)C2)cc(OC(F)F)n1 | 1.06 | 71 | – |
| COc1cc(N2CC(NC(=O)c3ccc4nc(C)cc(C)c4c3)C2)c(Cl)cn1 | 0.383 | 62 | CLint scaled [1]: 106 mL/min/kg; Kp at 0.25 h [2]: 0.84; fraction unbound [3]: 0.002; CLint scaled [4]: 178 mL/min/kg; Kp uu at 0.25 h [5]: 3.36; fraction unbound [6]: 0.008; fraction unbound [7]: 0.002 |
| Cc1cc(C)c2cc(C(=O)NC3CN(c4cnc(C(F)(F)F)cn4)C3)ccc2n1 | 1.16 | 75 | – |
| Cc1cc(C)c2cc(C(=O)NC3CN(c4ccnc(C(F)(F)F)c4)C3)ccc2n1 | 0.82 | 61 | – |
| Cc1cc(C)c2cc(C(=O)NC3CN(c4cc(Cl)ncc4Cl)C3)ccc2n1 | 0.307 | 57 | CLint scaled [1]: 160 mL/min/kg; Kp at 0.25 h [2]: 0.1; fraction unbound [3]: 0.002; CLint scaled [4]: 295 mL/min/kg; Kp uu at 0.25 h [5]: 0.3; fraction unbound [6]: 0.006; fraction unbound [7]: 0.002 |
| Cc1cc(C)c2cc(C(=O)NC3CN(c4ncc(F)cn4)C3)ccc2n1 | > 10 | 61 | – |
| Cc1cc(C)c2cc(C(=O)N3CCCC3)ccc2n1 | – | 18.3 | pEC50 [10]: inactive; EC50 ([8]; cho): Not Active |
| Cc1cc(C)c2cc(C(=O)NC3CN(c4ncc(Cl)cc4F)C3)ccc2n1 | 0.453 | 82 | – |
| COc1ccc(CNC(=O)c2ccc3nc(C)cc(C)c3c2)cc1F | > 10 | 63 | – |
| Cc1cc(C)c2cc(C(=O)NC3CN(c4ncccc4Cl)C3)ccc2n1 | 0.935 | 82 | – |
| Cc1cc(C)c2cc(C(=O)NC3CN(c4ncc(C(F)(F)F)cn4)C3)ccc2n1 | 3.91 | 66 | – |
| Cc1cc(C)c2cc(C(=O)NC3CN(c4ccnc(OC(F)F)c4)C3)ccc2n1 | 1.13 | 86 | – |
| Cc1cc(C)c2cc(C(=O)NC3CN(c4cnc(C5CC5)cn4)C3)ccc2n1 | 1.07 | 82 | – |
| Cc1cc(C)c2cc(C(=O)NC3CN(c4ccc(Cl)cn4)C3)ccc2n1 | 0.967 | 84 | – |
| Cc1cc(C)c2cc(C(=O)NC3CN(c4cccc(Cl)n4)C3)ccc2n1 | 0.44 | 77 | – |
| Cc1cc(C)c2cc(C(=O)NC3CN(c4ncc(OC(C)C)cn4)C3)ccc2n1 | 6.14 | 73 | – |
| Cc1cc(C)c2cc(C(=O)NC3CN(c4cc(Cl)nc(Cl)c4)C3)ccc2n1 | 0.225 | 44 | – |
| Cc1cc(C)c2cc(C(=O)NC3CN(c4ccc(F)c(F)c4)C3)ccc2n1 | 0.856 | 55 | – |
